Some test systems named below: A498 renal; A549 NSCLC; ACHN renal; HOP-92 NSCLC; LOX IMVI melanoma; MDA-MB-231 breast; MOLT-4 leukemia; OVCAR-4 ovarian; RPMI-8226 leukemia; T-47D breast.
Assay in all cases: inhibition of tumour cell growth, NCI panel, 48 h

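Step 1: Grow cells in 96-well plates. Step 2: Expose to compound for 48 hours at 5 concentrations. Step 3: Interpolate endpoints linearly; if unreached, use highest concentration. Here, GI50 denotes the concentration required for 50% inhibition of growth. TGI marks complete inhibition of growth.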

As to `COc1cccc(CC(C)=C(c2ccc(OCCN(C)C)cc2)c2ccc(OCCN(C)C)cc2)c1`, the GI50 with A498 renal is 4.79 µM; with A549 NSCLC, 3.59 µM; with ACHN renal it was 1.04 µM; with HOP-92 NSCLC, 0.865 µM; with LOX IMVI melanoma it was 0.604 µM; in the assay with MDA-MB-231 breast, 1.1 µM. The GI50 in the assay with MOLT-4 leukemia is 0.834 µM; in the assay on OVCAR-4 ovarian, 3.53 µM; in the assay on RPMI-8226 leukemia it was 0.842 µM; in the assay on T-47D breast, 0.681 µM. The TGI in the assay on A498 renal worked out at 9.63 µM; in the assay with A549 NSCLC, 8.25 µM; with ACHN renal, 3.35 µM; in the assay on HOP-92 NSCLC it was 4.48 µM; with LOX IMVI melanoma it was 1.16 µM; in the assay with MDA-MB-231 breast, 4.69 µM. In addition, the TGI was 2.39 µM in the assay with MOLT-4 leukemia, 8.16 µM with OVCAR-4 ovarian, 2.24 µM with RPMI-8226 leukemia and 1.77 µM in the assay on T-47D breast.

In the case of `O=C(Nc1ccc(Nc2ccncc2)cc1)c1ccc([N+](=O)[O-])cc1`, the GI50 in the assay with A498 renal was 2.43 µM; with A549 NSCLC, 10 µM; with ACHN renal, 4.62 µM; with HOP-92 NSCLC, 4.96 µM; with LOX IMVI melanoma it was 3.72 µM; in the assay with MDA-MB-231 breast, 3.44 µM. Besides, the GI50 in the assay with MOLT-4 leukemia is 3.3 µM; in the assay on OVCAR-4 ovarian it was 5.37 µM; in the assay on RPMI-8226 leukemia, 2.5 µM; in the assay on T-47D breast, 3.3 µM. Also, the TGI in the assay on A498 renal was found to be 9 µM; in the assay with A549 NSCLC, 33.1 µM; in the assay on ACHN renal, 19.7 µM; in the assay with HOP-92 NSCLC, 21.7 µM; in the assay on LOX IMVI melanoma, 14.7 µM; in the assay on MDA-MB-231 breast, 14.9 µM. The TGI with MOLT-4 leukemia is above 33.3 µM; in the assay on OVCAR-4 ovarian, 27.4 µM; with RPMI-8226 leukemia, 17 µM; in the assay with T-47D breast it was 20 µM.

On to `O=C(/C=C/c1ccccc1)CCC1C(=O)c2ccccc2C1=O`, for which the TGI in the assay on A498 renal, in the assay on A549 NSCLC, in the assay with ACHN renal, with HOP-92 NSCLC, in the assay on LOX IMVI melanoma and in the assay with MDA-MB-231 breast was above 100 µM in each case. The TGI in the assay with MOLT-4 leukemia, in the assay with OVCAR-4 ovarian, with RPMI-8226 leukemia and in the assay with T-47D breast was above 100 µM in each case.

As to `CN1CCN(C2CCN(C(=O)Nc3cc(Oc4ccc(NC(=O)C5(C(=O)Nc6ccc(F)cc6)CC5)c(F)c4)ccn3)CC2)CC1`, the GI50 in the assay with A498 renal is 0.315 µM; in the assay with A549 NSCLC it was 1.38 µM; in the assay on ACHN renal, 1.3 µM; with HOP-92 NSCLC it was 0.483 µM; in the assay on LOX IMVI melanoma it was 1.04 µM; in the assay with MDA-MB-231 breast, 0.981 µM. The GI50 with MOLT-4 leukemia was 0.803 µM; with OVCAR-4 ovarian it was 1.14 µM; in the assay on RPMI-8226 leukemia, 1.62 µM; in the assay on T-47D breast, 5.56 µM. Also, the TGI with A498 renal was 1.38 µM; with A549 NSCLC, above 10 µM; with ACHN renal it was above 10 µM; in the assay with HOP-92 NSCLC, above 2.54 µM; in the assay with LOX IMVI melanoma, above 10 µM; with MDA-MB-231 breast it was above 7 µM. Besides, the TGI is above 2.7 µM in the assay with MOLT-4 leukemia, 9.84 µM with OVCAR-4 ovarian, above 2.63 µM in the assay with RPMI-8226 leukemia and above 10 µM in the assay with T-47D breast.

For `CCOC(=O)C1=CN(C)C=C(C(=O)OCC)C1c1cc(Br)c(OCC)c(OC)c1`, the GI50 was 4.99 µM in the assay with A498 renal; 81.7 µM in the assay on A549 NSCLC; above 100 µM with ACHN renal; 20.5 µM in the assay with HOP-92 NSCLC; above 100 µM in the assay with LOX IMVI melanoma; 45.4 µM in the assay with MDA-MB-231 breast. Moreover, the GI50 with MOLT-4 leukemia is above 100 µM; in the assay with OVCAR-4 ovarian, 12.5 µM; in the assay with RPMI-8226 leukemia, 25.8 µM; in the assay on T-47D breast, 23.5 µM. Also, the TGI with A498 renal is 94.9 µM; with A549 NSCLC, above 100 µM; in the assay on ACHN renal, above 100 µM; in the assay on HOP-92 NSCLC it was above 100 µM; with LOX IMVI melanoma it was above 100 µM; with MDA-MB-231 breast it was above 100 µM. Also, the TGI in the assay with MOLT-4 leukemia, in the assay with OVCAR-4 ovarian, in the assay with RPMI-8226 leukemia and in the assay on T-47D breast was above 100 µM each time.
